Source: PMC6149849, “Cymantrenyl-Nucleobases: Synthesis, Anticancer, Antitrypanosomal and Antimicrobial Activity Studies” (Molecules : A Journal of Synthetic Chemistry and Natural …, 2017)
Read-outs that look alike come from different tables or passages of the source.

Legend:
[1] = tested on: SKOV-3 (ovarian adenocarcinoma); test: MTT cytotoxicity assay, SKOV-3; assay type: cell-based, human
Experimental: (§6) Anticancer activity of cymantrenes was determined using a panel of human cancer cell lines that were derived from solid tumors. […] The inhibitory effect of cymantrene derivatives on cell proliferation and growth was determined based on survival curves and was expressed as IC50 values (concentration required to achieve a 50% decrease in cell viability when compared to the viability of untreated control cells) calculated using GraphPad Prism 4.02 software for Windows (GraphPad Software, San Diego, CA, USA). Cell viability was determined by the MTT microplate spectrophotometric cytotoxicity test.
(§7) The cytotoxicity of cymantrene derivatives was evaluated by the MTT microplate methods as described elsewhere [67] by incubating the cells with increasing concentrations of tested compounds for 24 h. Briefly, 0.1 mL of logarithmically growing cells were seeded in a 96-well microplate (5 × 10^4 cells/well) a day before the experiments and after 24 h of culture, tested compounds, dissolved in DMSO, and diluted in culture medium, were added. […] After further incubation for 24 h, the medium was replaced with fresh medium and the cells were allowed to grow for additional 48 h. Then, the medium was aspirated and 0.05 mL of MTT (final concentration of 5 mg/mL medium) added to each well, and the cells were incubated for further 4 h. The absorbance of the product, resulting from the MTT reduction, was read with a microplate reader at 545 nm. The percentage of viable cells was calculated by comparing the absorbance of treated cells with that of the untreated control cells (taken as 100%). The IC50 concentration of each compound was calculated from the cell survival curves using GraphPad Prism 4.02 software for Windows (GraphPad Software, San Diego, CA, USA).

[2] = tested on: HepG2 (hepatocellular carcinoma); test: MTT cytotoxicity assay, HepG2; assay type: cell-based, human
Experimental: as §6, §7

U87-MG (glioblastoma) = test: MTT cytotoxicity assay, U87-MG; assay type: cell-based, human
Experimental: as §6, §7

[3] = tested on: MCF-7 (hormone-responsive breast adenocarcinoma); test: MTT cytotoxicity assay, MCF-7; assay type: cell-based, human
Experimental: as §6, §7

[4] = tested on: A549 (non-small cell lung carcinoma); test: MTT cytotoxicity assay, A549
Experimental: Anticancer activity of cymantrenes was determined using a panel of human cancer cell lines that were derived from solid tumors. These included cell lines of estrogen-responsive, doxorubicin resistant, and triple negative breast adenocarcinomas (MCF-7, MCF-7/DX, and MDA-MB-231), ovarian adenocarcinoma (SKOV-3), non-small cell lung carcinoma (A549), hepatocellular carcinoma (HepG2), and glioblastoma (U-87 MG). The inhibitory effect of cymantrene derivatives on cell proliferation and growth was determined based on survival curves and was expressed as IC50 values (concentration required to achieve a 50% decrease in cell viability when compared to the viability of untreated control cells) calculated using GraphPad Prism 4.02 software for Windows (GraphPad Software, San Diego, CA, USA). Cell viability was determined by the MTT microplate spectrophotometric cytotoxicity test.
Anticancer activity of cymantrene derivetives were determined on the basis of their cytotoxic effects on a panel of human cancer cells, as derived from different types of solid tumors: estrogen responsive breast adenocarcinoma (MCF-7), triple negative breast adenocarcinoma (MDA-MB-231), ovarian adenocarcinoma (SKOV-3), non-small cell lung carcinoma (A549), hepatocellular carcinoma (HepG2), and glioblastoma (U-87 MG). Additionally, doxorubicin resistant breast adenocarcinoma cells (MCF-7/Dox) were also included for comparison. All of the cell lines were purchased from American Type Culture Collection (ATCC, Rockville, MD, USA), except the MCF-7/dox cell line, which was a generous gift from Professor Malgorzata Latocha from the Department of Cell Biology, Medical University of Silesia in Katowice, Poland.
Cells were grown as a monolayer in DMEM growth medium, supplemented with 10% FBS, penicillin (10 U/mL) and streptomycin (50 μg/mL), under standard conditions (37 °C, 5% CO2 and 95% air, 100% humidity) and periodically checked for Mycoplasma contamination.
The cytotoxicity of cymantrene derivatives was evaluated by the MTT microplate methods as described elsewhere by incubating the cells with increasing concentrations of tested compounds for 24 h. Briefly, 0.1 mL of logarithmically growing cells were seeded in a 96-well microplate (5 × 10^4 cells/well) a day before the experiments and after 24 h of culture, tested compounds, dissolved in DMSO, and diluted in culture medium, were added. […] After further incubation for 24 h, the medium was replaced with fresh medium and the cells were allowed to grow for additional 48 h. Then, the medium was aspirated and 0.05 mL of MTT (final concentration of […] medium) added to each well, and the cells were incubated for further 4 h. The absorbance of the product, resulting from the MTT reduction, was read with a microplate reader at 545 nm. The percentage of viable cells was calculated by comparing the absorbance of treated cells with that of the untreated control cells (taken as 100%). The IC50 concentration of each compound was calculated from the cell survival curves using GraphPad Prism 4.02 software for Windows (GraphPad Software, San Diego, CA, USA).

[5] = tested on: MDA-MB-231 (triple negative breast adenocarcinoma); test: MTT cytotoxicity assay, MDA-MB-231; assay type: cell-based, human
Experimental: as §6, §7

[6] = tested on: MCF-7/DX (estrogen-responsive breast adenocarcinoma resistant to doxorubicin); test: cells; assay type: cell-based, human
Experimental: as §7

SKOV-3 cells [7] = test: Apoptotic/necrotic cell death, Hoechst 33258/propidium iodide staining, fluorescence microscopy; assay type: cell-based, human; details: for increase of apoptotic cells compared to untreated control cells: SKOV-3, 24 h treatment with IC50 concentrations, post-treatment 24 and 48 h
Experimental: (§1) To determine the mode of cell death that was triggered by cymantrene derivatives, appropriately stained SKOV-3 cells were evaluated for morphological changes using fluorescence microscopy. For evaluation of apoptosis and autophagy, cells were stained with Hoechst 33258/propidium iodide to distinguish between live, apoptotic and necrotic cells and reveal condensed chromatin and apoptotic bodies (a hallmark of apoptosis), and with acridine orange to detect the development of acidic vesicular organelles (AVOs—a hallmark of autophagy).
(§2) One day prior to the experiments, cells were seeded at the appropriate density into 35 mm diameter dishes. […] At the end of incubation, the medium was aspirated, the cell monolayer was washed twice with pre-warmed PBS, and fresh medium was added. The cells were cultured in drug-free medium for an additional 24 or 48 h to enable them to recover after the exposure to the compounds and to repair any induced damages.
Quantitative analysis of morphological changes that are associated with apoptosis, necrosis, and autophagy were assessed using a fluorescence microscope (Olympus IX70, Tokyo, Japan) at 400× magnification, as described elsewhere. At the indicated time points, cells were washed with PBS, trypsinized, and centrifuged at 1000 rpm (fixed angle rotor, 72× g) for 5 min at 37 °C. The supernatant was removed and the cell pellet (100 µL) was transferred to the Eppendorf tube, mixed with Ho33258 (2 µL, 0.13 mM) and PI (2 µL, 0.23 mM), and incubated for 5 min in the dark at room temperature. At least 300 stained cells were counted in triplicate in each of the three independent experiments. Cells were classified as live, apoptotic, or necrotic on the basis of their morphological and staining characteristics, and each fraction was related to the total cell number.

[8] = tested on: S. aureus ATCC 700787 (VISA); test: Antibacterial liquid microdilution (CLSI M07-A8); assay type: cell-based, Staphylococcus aureus; details: 18 to 24 h
Experimental: (§3) Organometallic compounds play an increasingly important role in the search for new antibacterial agents. We, therefore, thought to investigate also the bactericidal activity of the newly synthesized cymantrenes 1–7, compound C and CymH. The antibacterial activity of the compounds was tested against Gram-positive methicillin-sensitive Staphylococcus aureus (MSSA), methicillin-resistant S. aureus (MRSA), vancomycin-intermediate S. aureus (VISA), S. epidermidis, and Gram-negative Escherichia coli bacterial strains, and expressed as minimal inhibitory concentration (MIC) values (Table 3).
(§4) The antibacterial activity of CymH, 1–7 and C and the reference drugs penicillin G and polymyxin B was tested by the liquid microdilution method under standard conditions using twofold dilution series, as described in the Clinical and Laboratory Standards Institute (CLSI), reference method M07-A8, and expressed as minimal inhibitory concentration (MIC) values. A panel of Gram-positive bacterial strains, S. aureus ATCC® 29213 (sensitive to methicillin, (MSSA)), S. aureus ATCC® 43300 (resistant to methicillin, (MRSA)), S. aureus ATCC 700787™ (intermediate to vancomycin, (VISA)), and S. epidermidis ATCC 12228™, and one Gram-negative, strain E. coli ATCC BAA-198™ (ESBL) were used. In addition, four clinical isolates of S. aureus (MSSA and MRSA) and two clinical isolates of S. epidermidis that were collected from different patients at the Medical University of Warsaw, Poland, were also tested. The bacterial cells were cultivated on tryptic soy agar (TSA) and nutrient agar (NA), according to ATCC recommendations. All of the strains were incubated at 37 °C. Tested compounds were dissolved in DMSO and then serially diluted twofold with cation-adjusted Mueller-Hinton broth (CAMHB). Then, 95 µL of the dilutions were dispensed into microdilution sterile plates (Mar-Four), followed by the addition of 5 µL of bacteria inoculum containing 5 × 10^4 CFU/mL. The final concentrations of the compounds ranged from 512 to 2 µg/mL. Each compound was tested in triplicate, and Penicillin G (8–0.15 µg/mL) and Polymyxin B (256–0.0625 µg/mL) were used as controls. The plates were incubated at 37 °C for 18 to 24 h depending on the bacterial strain. Thereafter, the absorbance was measured at λ = 540 nm and λ = 595 nm using a Spectrostar Omega microplate reader (BMG Labtech, Offenburg, Germany). The MIC value was defined as the lowest concentration of a compound that reduced the growth by 100%.

[9] = tested on: S. aureus ATCC 29213 (MSSA); test: Antibacterial liquid microdilution (CLSI M07-A8); assay type: cell-based, Staphylococcus aureus; details: 18 to 24 h
Experimental: as §3, §4

[10] = tested on: S. aureus ATCC 43300 (MRSA); test: Antibacterial liquid microdilution (CLSI M07-A8); assay type: cell-based, Staphylococcus aureus; details: 18 to 24 h
Experimental: as §3, §4

[11] = tested on: E. coli ATCC BAA-198 (ESBL); test: Antibacterial liquid microdilution (CLSI M07-A8); assay type: cell-based, Escherichia coli; details: 18 to 24 h
Experimental: as §3, §4

[12] = tested on: S. epidermidis ATCC 12228; test: Antibacterial liquid microdilution (CLSI M07-A8); assay type: cell-based, Staphylococcus epidermidis; details: 18 to 24 h
Experimental: as §3, §4

[13] = tested on: human myeloid leukemia HL-60 cells; test: in vitro
Experimental: (§5) All of the cultures were maintained at 37 °C in a humidified atmosphere containing 5% of CO2. Toxicity assays were performed, as previously described, with some modifications. In brief, trypanosomes and HL-60 cells were seeded at an initial cell density of 10^4/mL and 5 × 10^4/mL, respectively, in 96-well plates in a final volume of 200 μL culture medium containing various concentrations of test compounds dissolved in 100% DMSO. […] The controls contained DMSO alone. In all of the experiments, the final DMSO concentration was 0.9%. After 24 h incubation, 20 µL of a 0.5 mM resazurin solution prepared in PBS was added and the cultures were incubated for a further 48 h. Resazurin is a vital dye that, when being reduced by living cells, changes its colour from blue to pink. Thus, by measuring absorbance, the proliferation of cells can be easily determined. The change in absorbance was read with a microplate reader using a test wavelength of 570 nm and a reference wavelength of 630 nm. GI50 values were calculated by linear interpolation according to the method described by Huber and Koella. MIC values were determined microscopically.

SKOV-3 cells [14] = test: Autophagy (acidic vesicular organelles, AVOs), acridine orange staining; assay type: cell-based, human; details: SKOV-3, IC50 concentrations 24 h, then 0, 24 or 48 h drug-free
Experimental: as §1, §2
The ability of tested compounds to induce autophagosome formation inside cells (the process associated with the induction of autophagy) was evaluated by microscopic examination of the morphology of cells stained with acridine orange (AO).

[15] = tested on: bloodstream forms of T. brucei clone 427-221a; test: Trypanocidal assay, resazurin viability assay; assay type: cell-based, Trypanosoma brucei
Experimental: as §5

[16] = tested on: bloodstream forms of T. brucei clone 427-221a; details: cited from earlier work
[17] = tested on: human myeloid leukemia HL-60 cells; details: cited from earlier work

## COc1cccc2c1C(=O)c1c(O)c3c(c(O)c1C2=O)C[C@@](O)(C(=O)CO)C[C@@H]3O[C@H]1C[C@H](N)[C@H](O)[C@H](C)O1 [DOX, doxorubicin, reference compound]
[1]; Homo sapiens, SK-OV-3, 24 h, read-out: cytotoxicity IC50, SKOV-3
  IC50: 0.858 ± 0.044 µM
[2]; Homo sapiens, HepG2, 24 h, read-out: cytotoxicity IC50, HepG2
  IC50: 0.569 ± 0.021 µM
U87-MG (glioblastoma); Homo sapiens, U-87 MG, 24 h, read-out: cytotoxicity IC50, U87-MG
  IC50: 0.61 ± 0.029 µM
[3]; Homo sapiens, MCF7, 24 h, read-out: cytotoxicity IC50, MCF-7
  IC50: 0.439 ± 0.026 µM
[4]; Homo sapiens, A549, 24 h, read-out: cytotoxicity IC50, A549
  IC50: 0.3 ± 0.018 µM
[5]; Homo sapiens, MDA-MB-231, 24 h, read-out: cytotoxicity IC50, MDA-MB-231
  IC50: 1.07 ± 0.062 µM
[6]; Homo sapiens, MCF7/DX, 24 h, read-out: cytotoxicity IC50, MCF-7/DX
  IC50: 48.5 ± 2.78 µM
[6]; MCF-7/DX vs MCF-7
  fold less effective against MCF-7/DX cells than MCF-7 cells: ~100 fold

## O=c1[nH]c(=O)n(CCC(O)[C]23[CH]4[CH]5[CH]6[CH]2[Mn]5643)cc1F.[C-]#[O+].[C-]#[O+].[C-]#[O+] (racemic) [Compound 2]
SKOV-3 cells [7]
  increase of apoptotic cells compared to untreated control cells: 11 fold
SKOV-3 cells [7]; SKOV-3, IC50 concentrations
  apoptotic cell fraction predominantly increased: late-apoptotic cell fraction
[8]
  MIC, S. aureus ATCC 700787 (VISA): >512 µg/mL
[9]
  MIC, S. aureus ATCC 29213 (MSSA): >512 µg/mL
[10]
  MIC, S. aureus ATCC 43300 (MRSA): >512 µg/mL
[1]
  IC50: 97.5 ± 2.87 µM
[2]
  IC50: > 150 µM
U87-MG (glioblastoma)
  IC50: 100 ± 1.01 µM
[11]
  MIC, E. coli ATCC BAA-198: >512 µg/mL
[3]
  IC50: 119 ± 2.97 µM
[12]
  MIC, S. epidermidis ATCC 12228: >512 µg/mL
[13]
  GI50: > 100 µM
  HL-60 MIC: >100 µM
SKOV-3 cells [14]
  induction of autophagy (cells containing AVOs): greatest autophagic changes
[5]
  IC50: > 150 µM
[15]; 50% growth inhibition
  GI50: > 100 µM
[15]; concentration at which all cells were killed, determined microscopically
  MIC: >100 µM

## NCCCC(N)(C(=O)O)C(F)F (stereo not shown) [DFMO, difluoromethylornithine, reference compound]
[16]
  GI50: 23.9 µM
  T. brucei MIC: >125 µM

## Nc1ncnc2c1ncn2CCC(O)[C]12[CH]3[CH]4[CH]5[CH]1[Mn]4532.[C-]#[O+].[C-]#[O+].[C-]#[O+] (racemic) [Compound B]
SKOV-3 cells [7]
  increase of apoptotic cells compared to untreated control cells: only a three-fold increase
[1]
  IC50: > 150 µM
[2]
  IC50: > 150 µM
U87-MG (glioblastoma)
  IC50: > 150 µM
[3]
  IC50: > 150 µM
[17]
  GI50: > 100 µM
[4]
  IC50: > 150 µM
SKOV-3 cells [14]
  induction of autophagy (cells containing AVOs): Less induction of autophagy
[5]
  IC50: > 150 µM
[16]; HL-60 / T. brucei
  Selectivity GI50 Ratio: >3.2
[16]
  GI50: 30.8 ± 3.5 µM
  T. brucei MIC: >100 µM

## O=C(CCn1ccc(=O)[nH]c1=O)[C]12[CH]3[CH]4[CH]5[CH]1[Mn]4532.[C-]#[O+].[C-]#[O+].[C-]#[O+] (stereo not shown) [non-fluorinated counterpart]
[17]
  GI50: > 100 µM
  HL-60 MIC: > 100 µM
[16]
  GI50: 3.6 µM
  T. brucei MIC: 100 µM
